Experimental data reported in US7772192B2, “Compositions and methods for treatment of disease with acetylated disaccharides” (The Regents of the University of California, priority 2003, dated 2010).

How the values were obtained:
[1] = system: LLC cells; test: Spontaneous tumor metastasis of LLC cells, compound by osmotic pump; assay type: in vivo, mice; conditions: ~1 mg/day/mouse, 4 weeks
Description: Osmotic pumps (ref 4) containing vehicle or peracetylated GlcNAcβ3Gal-NM were surgically implanted in a dorsal skin fold of Es1(e) mice and LLC cells (5×10^5) were implanted subcutaneously in the hindquarter. The dose rate of compound was ˜1 mg/day/mouse. Panel A. To detect tumor cells in the lungs, after 4 weeks each animal was injected intraperitoneally with 1 mg of BrdU (bromodeoxyuridine (BrdU), which is taken up by dividing cells—tumor cells, and therefore indicates the quantity of tumor cells in the lungs when cells from the lungs are stained with anti-BrdU antibodies). The animals were sacrificed, the heart was perfused with PBS and the lungs removed. Each lung was incubated with collagenase (10 mg/ml, 1 h, 37° C.), syringed through an 18-gauge needle and filtered through a […] nylon filter, and cells were fixed (70% ethanol, 1×10^6 cells/ml). The relative number of BrdU-labeled cells in the lungs was determined by flow cytometry (FACS) using a mouse anti-BrdU-FITC antibody. Control experiments used mouse IgG-FITC antibody. Statistics were calculated by one-way ANOVA tests comparing three groups of 4-7 animals. […] Statistics were calculated by student t-test comparing two groups of 4-7 animals.

[2] = system: LS180 colon carcinoma cells; test: Adhesion of activated human platelets to tumor cells (LS180); assay type: cell-based; conditions: 50 μM, 3 days, thrombin-activated human platelets
Description: Adhesion of activated human platelets to tumor cells. Tumor cells were seeded into 6-well plates (5×10^4/well), and allowed to grow into colonies in the presence or absence of 50 μM AcGnG-NM. After 3 days, platelets were isolated from 15 ml of normal human blood collected into 20% (v/v) Acid-Citrate-Dextrose (ACD) anticoagulant. A platelet-rich plasma was prepared by centrifugation and repeated washing using PSG buffer (5 mM HEPES, pH 6.8, 145 mM NaCl, 4 mM KCl, 0.5 mM sodium phosphate, 5.5 mM glucose, 0.5% BSA, and 25 nM prostaglandin E1 [Sigma]). The platelets were then labeled with Calcein AM (5 μM), and counted with a hemocytometer. Wells containing tumor cells were washed with HBSS, and 3×10^6 platelets were added in 1 ml of HBSS followed by activation with human thrombin (0.8 IU/well; Sigma). The plates were rocked for 10 min, and the wells were washed twice with HBSS, fixed with 5% formalin in HBSS, and analyzed by fluorescence microscopy. […]
Platelets bound to tumor cells were visualized by fluorescence microscopy (Nikon Diaphot) equipped with a digital camera (Nikon) linked to an Apple Macintosh computer with Adobe Photoshop software. The fluorescence image showing the platelets was superimposed on a phase-contrast picture of the cells and the number of attached platelets was quantified. […]

[3] = system: cell-surface sLe^a of LS180 cells; test: Flow cytometry of cell-surface sLe^a (CA19-9); assay type: cell-based, human; conditions: 50 μM
Description: Peracetylated forms of GlcNAcβ1,3Galβ-O-naphthalenemethanol (AcGnG-NM) and Galβ1,3Galβ-O-naphthalenemethanol (AcGG-NM) were prepared as described. Sarkar, et al., Carbohydr. Res., 329, 287-300, 2000. The compounds were dissolved in dimethylsulfoxide (DMSO) and added to growth medium to achieve the concentrations indicated in the figures. The supplemented medium was then exchanged for the medium in established cultures of cells in order to avoid lysis caused by adding concentrated DMSO directly to the plates. The final concentration of DMSO was adjusted to ≦0.5% (v/v). After the specified number of days, the cells were harvested with 2 mM EDTA in PBS (20 min) and used for the following experiments.
Cell Sorting. To detect the presence or absence of the relevant carbohydrate determinants, cells were stained with CSLEX-1 (anti-sLe^X, 5 μg/mL, Becton-Dickinson) or CA-19-9 ([…], 14.5 μg/mL, Chemicon) and analyzed by flow cytometry (FACScan Becton-Dickinson, Franklin Lakes, N.J.). […]
Treatment of LS180 cells with AcGnG-NM reduces cell-surface sLe^X, but not sLe^a. […] LS180 cells were grown in the presence of 50 μM AcGnG-NM, harvested with EDTA, stained with monoclonal antibodies (CSLEX-1, anti-sLe^X and CA19-9, anti-sLe^a) as indicated and analyzed by flow cytometry (Materials and Methods). […]

GlcNAcβ1,3Galβ-O-naphthalenemethanol [AcGnG-NM]
spontaneous tumor metastasis (BrdU-labeled cells in the lungs) [1]: Inhibits Spontaneous Tumor Metastasis
reduction of platelet adhesion [2]: 60%
cell-surface sLe^a [3]: no effect
